Assay: xn = mol fraction of the nth substance listed
Settings: 101 kPa, Liquid

CCCCCC [hexane] + CCCCCCC
mass density [kg/m3]
Settings | x1 = 0.1019 | x1 = 0.2003 | x1 = 0.3005 | x1 = 0.4007 | x1 = 0.5001 | x1 = 0.5984 | x1 = 0.7002 | x1 = 0.7995 | x1 = 0.8974
273.15 K | 698.37 | 696.77 | 694.27 | 692.25 | 689.57 | 687.14 | 684.81 | 682.14 | 679.66
278.15 K | 694.22 | 692.61 | 690.08 | 688.04 | 685.35 | 682.88 | 680.52 | 677.82 | 675.32
283.15 K | 690.04 | 688.42 | 685.86 | 683.8 | 681.08 | 678.58 | 676.2 | 673.47 | 670.94
288.15 K | 685.84 | 684.21 | 681.62 | 679.53 | 676.79 | 674.26 | 671.85 | 669.1 | 666.54
293.15 K | 681.62 | 679.97 | 677.36 | 675.24 | 672.47 | 669.91 | 667.47 | 664.69 | 662.1
298.15 K | 677.38 | 675.7 | 673.06 | 670.93 | 668.12 | 665.53 | 663.06 | 660.24 | 657.62
303.15 K | 673.11 | 671.42 | 668.74 | 666.58 | 663.74 | 661.12 | 658.62 | 655.77 | 653.12
308.15 K | 668.81 | 667.09 | 664.39 | 662.2 | 659.32 | 656.67 | 654.14 | 651.25 | 648.57
313.15 K | 664.47 | 662.74 | 660 | 657.78 | 654.86 | 652.19 | 649.62 | 646.69 | 643.98
318.15 K | 660.11 | 658.36 | 655.58 | 653.33 | 650.35 | 647.66 | 645.06 | 642.1 | 639.34
323.15 K | 655.71 | 653.93 | 651.12 | 648.84 | 645.81 | 643.1 | 640.45 | 637.45 | 634.65
328.15 K | 651.27 | 649.47 | 646.62 | 644.31 | 641.22 | 638.48 | 635.8 | 632.76 | 629.92
333.15 K | 646.79 | 644.97 | 642.07 | 639.73 | 636.58 | 633.82 | 631.24 | 628.01 | 625.13
338.15 K | 642.28 | 640.43 | 637.49 | 635.11 | 631.89 | – | 626.48 | 623.2 | 620.28
343.15 K | 637.71 | 635.84 | 632.85 | 630.44 | 627.14 | – | 621.67 | – | –
348.15 K | 633.1 | 631.2 | 628.16 | 625.71 | 622.33 | – | 616.8 | – | –
353.15 K | 628.43 | 626.5 | 623.42 | 620.92 | – | – | – | – | –
358.15 K | 623.71 | 621.75 | 618.61 | 616.08 | – | – | – | – | –
363.15 K | 618.94 | 616.94 | 613.75 | 611.16 | – | – | – | – | –

CCCCC [pentane] + CCCCCCC
mass density [kg/m3]
Settings | x1 = 0.1014 | x1 = 0.2019 | x1 = 0.3011 | x1 = 0.4001 | x1 = 0.4997 | x1 = 0.5999 | x1 = 0.698 | x1 = 0.7991 | x1 = 0.8992
273.14 K | – | 691.57 | – | – | – | – | – | – | –
273.15 K | 696.24 | – | 686.91 | 682.43 | 677.18 | 671.16 | 665.42 | 659.05 | 652.37
278.15 K | 692.07 | 687.35 | 682.65 | 678.13 | 672.82 | 666.73 | 660.92 | 654.47 | 647.72
283.15 K | 687.87 | 683.1 | 678.35 | 673.78 | 668.42 | 662.25 | 656.37 | 649.85 | 643.01
288.15 K | 683.65 | 678.83 | 674.03 | 669.41 | 663.99 | 657.74 | 651.79 | 645.18 | 638.26
293.15 K | 679.4 | 674.53 | 669.67 | 665.01 | 659.51 | 653.19 | 647.17 | 640.48 | 633.46
298.15 K | 675.12 | 670.21 | 665.29 | 660.56 | 655.01 | 648.6 | 642.5 | 635.73 | 628.61
303.15 K | 670.82 | 665.85 | 660.88 | 656.08 | 650.46 | 643.97 | 637.79 | 630.93 | 623.7
308.15 K | 666.49 | 661.46 | 656.43 | 651.57 | 645.86 | 639.3 | 633.03 | 626.07 | –
313.15 K | 662.08 | 657.04 | 651.94 | 647 | 641.22 | 634.58 | 628.22 | 621.16 | –
318.15 K | 657.69 | 652.58 | 647.42 | 642.39 | 636.53 | – | 623.36 | 616.18 | –
323.15 K | 653.26 | 648.09 | 642.84 | 637.74 | 631.79 | – | 618.43 | 611.14 | –
328.15 K | 648.78 | 643.55 | 638.23 | 633.03 | 626.99 | – | – | – | –
333.15 K | 644.24 | – | 633.57 | 628.26 | 622.13 | – | – | – | –
338.15 K | 639.67 | – | – | 623.48 | 617.2 | – | – | – | –
343.15 K | 635.01 | – | – | 618.87 | – | – | – | – | –

CCCCC [pentane] + CCCCCC
Settings | mass density [kg/m3]
273.15 K, x1 = 0.0999 | 674.29
273.15 K, x1 = 0.1996 | 671.84
273.15 K, x1 = 0.2998 | 668.66
273.15 K, x1 = 0.3884 | 666.23
273.15 K, x1 = 0.5 | 662.72
273.15 K, x1 = 0.6 | 659.97
273.15 K, x1 = 0.7001 | 657
273.15 K, x1 = 0.8995 | 650.09
273.16 K, x1 = 0.8011 | 653.2
278.15 K, x1 = 0.0999 | 669.9
278.15 K, x1 = 0.1996 | 667.39
278.15 K, x1 = 0.2998 | 664.21
278.15 K, x1 = 0.3884 | 661.71
278.15 K, x1 = 0.5 | 658.2
278.15 K, x1 = 0.6 | 655.38
278.15 K, x1 = 0.7001 | 652.36
278.15 K, x1 = 0.8011 | 648.53
278.15 K, x1 = 0.8995 | 645.39
283.14 K, x1 = 0.3884 | 657.16
283.14 K, x1 = 0.6 | 650.74
283.14 K, x1 = 0.7001 | 647.7
283.14 K, x1 = 0.8011 | 643.81
283.14 K, x1 = 0.8995 | 640.63
283.15 K, x1 = 0.0999 | 665.46
283.15 K, x1 = 0.1996 | 662.9
283.15 K, x1 = 0.2998 | 659.71
283.15 K, x1 = 0.5 | 653.63
288.14 K, x1 = 0.1996 | 658.38
288.14 K, x1 = 0.3884 | 652.56
288.14 K, x1 = 0.6 | 646.06
288.14 K, x1 = 0.7001 | 642.98
288.14 K, x1 = 0.8995 | 635.83
288.15 K, x1 = 0.0999 | 661
288.15 K, x1 = 0.2998 | 655.18
288.15 K, x1 = 0.5 | 649.01
288.15 K, x1 = 0.8011 | 639.05
293.14 K, x1 = 0.6 | 641.34
293.14 K, x1 = 0.7001 | 638.21
293.15 K, x1 = 0.0999 | 656.49
293.15 K, x1 = 0.1996 | 653.82
293.15 K, x1 = 0.2998 | 650.6
293.15 K, x1 = 0.3884 | 647.93
293.15 K, x1 = 0.5 | 644.36
293.15 K, x1 = 0.8011 | 634.24
293.15 K, x1 = 0.8995 | 630.97
298.14 K, x1 = 0.1996 | 649.22
298.14 K, x1 = 0.3884 | 643.25
298.14 K, x1 = 0.6 | 636.57
298.14 K, x1 = 0.7001 | 633.51
298.14 K, x1 = 0.8995 | 626.07
298.15 K, x1 = 0.0999 | 651.95
298.15 K, x1 = 0.2998 | 645.98
298.15 K, x1 = 0.5 | 639.66
298.15 K, x1 = 0.8011 | 629.38
303.14 K, x1 = 0.1996 | 644.58
303.14 K, x1 = 0.3884 | 638.53
303.14 K, x1 = 0.6 | 631.74
303.14 K, x1 = 0.7001 | 628.65
303.14 K, x1 = 0.8011 | 624.47
303.15 K, x1 = 0.0999 | 647.36
303.15 K, x1 = 0.2998 | 641.31
303.15 K, x1 = 0.5 | 634.91
303.15 K, x1 = 0.8995 | 621.11
308.14 K, x1 = 0.7001 | 623.75
308.15 K, x1 = 0.0999 | 642.74
308.15 K, x1 = 0.1996 | 639.9
308.15 K, x1 = 0.2998 | 636.59
308.15 K, x1 = 0.3884 | 633.76
308.15 K, x1 = 0.5 | 630.1
308.15 K, x1 = 0.6 | 626.86
308.15 K, x1 = 0.8011 | 619.5
308.15 K, x1 = 0.8995 | 616.08
313.14 K, x1 = 0.6 | 621.92
313.14 K, x1 = 0.8011 | 614.47
313.14 K, x1 = 0.8995 | 611
313.15 K, x1 = 0.0999 | 638.06
313.15 K, x1 = 0.1996 | 635.17
313.15 K, x1 = 0.2998 | 631.82
313.15 K, x1 = 0.3884 | 628.94
313.15 K, x1 = 0.5 | 625.24
313.15 K, x1 = 0.7001 | 618.75
318.14 K, x1 = 0.3884 | 624.06
318.14 K, x1 = 0.6 | 616.92
318.14 K, x1 = 0.7001 | 613.89
318.14 K, x1 = 0.8995 | 605.86
318.15 K, x1 = 0.0999 | 633.32
318.15 K, x1 = 0.1996 | 630.38
318.15 K, x1 = 0.5 | 620.41
318.15 K, x1 = 0.8011 | 609.38
323.14 K, x1 = 0.1996 | 625.55
323.14 K, x1 = 0.5 | 615.41
323.14 K, x1 = 0.8995 | 600.65
323.15 K, x1 = 0.0999 | 628.53
323.15 K, x1 = 0.6 | 611.84
328.14 K, x1 = 0.1996 | 620.65
328.15 K, x1 = 0.0999 | 623.68
328.15 K, x1 = 0.5 | 610.35
328.15 K, x1 = 0.6 | 606.69
333.15 K, x1 = 0.0999 | 618.77
333.15 K, x1 = 0.1996 | 615.6

From the NIST ThermoML archive (doi:10.1016/j.jct.2005.05.020)
